The values that follow are results of earlier work, collected in patent publication US20080057086A1, “COLON-TARGETED ORAL FORMULATIONS OF CYTIDINE ANALOGS” (PHARMION CORPORATION, priority 2006, published 2008).

This data set relates to total hemoglobin, fetal hemoglobin and F cells. To be noted: sickle cell patients; oral THU 200 mg/d alone; cited from earlier work.

With `O=C1NC(O)CCN1[C@@H]1O[C@H](CO)[C@@H](O)[C@H]1O` (stereo partly shown) [THU, tetrahydrouridine], the F reticulocyte production entry is listed as “did not result in increased F reticulocyte production”.
